Laboratory results reported in the NIST ThermoML archive (doi:10.1007/s10765-012-1233-x).

Details: Liquid; for viscosity: Falling or rolling sphere viscometry; for mass density: Vibrating tube method; for thermal conductivity: Hot wire method

CCCCCCn1cc[n+](C)c1.F[B-](F)(F)F [1-hexyl-3-methylimidazolium tetrafluoroborate]
Details | mass density [kg/m3] | thermal conductivity [W/m/K] | viscosity [mPa·s]
293.15 K, 100 kPa | 1148.6 | – | 286
293.15 K, 5000 kPa | 1151.2 | – | 302
293.15 K, 10000 kPa | 1153.5 | – | 318
293.15 K, 15000 kPa | 1155.8 | – | 345
293.15 K, 20000 kPa | 1158.2 | – | 372
294.2 K, 100 kPa | – | 0.166 | –
294.2 K, 10000 kPa | – | 0.168 | –
294.2 K, 20000 kPa | – | 0.17 | –
313.15 K, 100 kPa | 1134.1 | – | 92.9
313.15 K, 5000 kPa | 1136.7 | – | 98.7
313.15 K, 10000 kPa | 1139.4 | – | 104
313.15 K, 15000 kPa | 1141.8 | – | 109
313.15 K, 20000 kPa | 1144.2 | – | 115
314.3 K, 100 kPa | – | 0.165 | –
314.3 K, 10000 kPa | – | 0.168 | –
314.3 K, 20000 kPa | – | 0.169 | –
333.15 K, 100 kPa | 1120.5 | – | 40.4
333.15 K, 5000 kPa | 1123.1 | – | 42.5
333.15 K, 10000 kPa | 1125.8 | – | 44.4
333.15 K, 15000 kPa | 1128.5 | – | 45.5
333.15 K, 20000 kPa | 1131.1 | – | 48.2
334.4 K, 100 kPa | – | 0.164 | –
334.4 K, 10000 kPa | – | 0.167 | –
334.4 K, 20000 kPa | – | 0.169 | –
353.15 K, 100 kPa | 1107.1 | – | 21.2
353.15 K, 5000 kPa | 1109.9 | – | 22.3
353.15 K, 10000 kPa | 1112.7 | – | 22.7
353.15 K, 15000 kPa | 1115.5 | – | 23.9
353.15 K, 20000 kPa | 1118.3 | – | 24.3

CCCCCCCC[n+]1ccn(C)c1.F[B-](F)(F)F [1-methyl-3-octylimidazolium tetrafluoroborate]
Details | mass density [kg/m3] | thermal conductivity [W/m/K] | viscosity [mPa·s]
293.15 K, 100 kPa | 1107.1 | – | 472
293.15 K, 5000 kPa | 1109.7 | – | 510
293.15 K, 10000 kPa | 1112.2 | – | 537
293.15 K, 15000 kPa | 1114.6 | – | 572
293.15 K, 20000 kPa | 1117 | – | 649
294.2 K, 100 kPa | – | 0.164 | –
294.2 K, 10000 kPa | – | 0.165 | –
294.2 K, 20000 kPa | – | 0.167 | –
313.15 K, 100 kPa | 1093.5 | – | 146
313.15 K, 5000 kPa | 1096.1 | – | 157
313.15 K, 10000 kPa | 1098.8 | – | 166
313.15 K, 15000 kPa | 1101.4 | – | 175
313.15 K, 20000 kPa | 1103.9 | – | 188
314.3 K, 100 kPa | – | 0.163 | –
314.3 K, 10000 kPa | – | 0.164 | –
314.3 K, 20000 kPa | – | 0.166 | –
333.15 K, 100 kPa | 1079.8 | – | 58
333.15 K, 5000 kPa | 1082.6 | – | 60.6
333.15 K, 10000 kPa | 1085.4 | – | 63.6
333.15 K, 15000 kPa | 1088.1 | – | 66.4
333.15 K, 20000 kPa | 1090.8 | – | 69.8
334.4 K, 100 kPa | – | 0.16 | –
334.4 K, 10000 kPa | – | 0.162 | –
334.4 K, 20000 kPa | – | 0.164 | –
353.15 K, 100 kPa | 1066.8 | – | 28.1
353.15 K, 5000 kPa | 1069.7 | – | 29.8
353.15 K, 10000 kPa | 1072.7 | – | 30.8
353.15 K, 15000 kPa | 1075.5 | – | 32.1
353.15 K, 20000 kPa | 1078.3 | – | 33.4
